One experiment has as its target P2X purinoceptor 7 (Rattus norvegicus, UniProt Q64663). In words: The compound was evaluated for antagonist activity against recombinant rat P2X purinoceptor 7 (P2X7). Format: functional.
In the next experiment the target is P2X purinoceptor 6 (Rattus norvegicus, UniProt P51579). The experiment can be described thus: Antagonist activity against recombinant rat P2X purinoceptor 6 (P2X6 ). Format: functional.
The next experiment concerns the target P2Y purinoceptor 2 (Homo sapiens, UniProt P41231). The experiment can be described thus: Evaluated for agonist activity against phospholipase C coupled recombinant human P2Y purinoceptor 2 (P2Y2). Format: functional.
Experiment [1] addresses T1, P2Y purinoceptor 1 (Homo sapiens, UniProt P47900). In words: Evaluated for agonist activity against phospholipase C coupled P2Y purinoceptor 1 (P2Y1) of human erythrocytes. Format: functional.
The target in experiment [2] is T2, P2X purinoceptor 1 (Rattus norvegicus, UniProt P47824).
T2 sequence (P47824 whole entry): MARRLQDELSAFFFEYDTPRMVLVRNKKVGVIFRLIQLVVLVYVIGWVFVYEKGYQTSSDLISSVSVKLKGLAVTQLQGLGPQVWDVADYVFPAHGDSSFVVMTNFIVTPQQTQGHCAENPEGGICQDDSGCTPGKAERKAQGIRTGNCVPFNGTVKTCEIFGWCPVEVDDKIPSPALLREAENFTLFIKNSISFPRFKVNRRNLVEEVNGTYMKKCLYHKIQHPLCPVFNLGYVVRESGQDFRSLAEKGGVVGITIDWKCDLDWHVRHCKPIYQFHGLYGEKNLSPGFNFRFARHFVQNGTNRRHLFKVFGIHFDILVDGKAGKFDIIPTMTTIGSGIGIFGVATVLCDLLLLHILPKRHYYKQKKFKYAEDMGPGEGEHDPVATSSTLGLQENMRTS
The experiment can be described thus: The compound was evaluated for antagonist activity against recombinant rat P2X purinoceptor 1 (P2X1) at 1 uM, expressed in Xenopus oocytes. It counts as functional, cell-based, Oocyte.

Another experiment concerns the target P2Y purinoceptor 12 (Rattus norvegicus, UniProt Q9EPX4). In words: Antagonist activity against phospholipase C coupled rat P2Y purinoceptor 12 (P2Y12). It counts as functional.
A further experiment deals with T3, P2X purinoceptor 4 (Rattus norvegicus, UniProt P51577).
T3 sequence (P51577 whole entry): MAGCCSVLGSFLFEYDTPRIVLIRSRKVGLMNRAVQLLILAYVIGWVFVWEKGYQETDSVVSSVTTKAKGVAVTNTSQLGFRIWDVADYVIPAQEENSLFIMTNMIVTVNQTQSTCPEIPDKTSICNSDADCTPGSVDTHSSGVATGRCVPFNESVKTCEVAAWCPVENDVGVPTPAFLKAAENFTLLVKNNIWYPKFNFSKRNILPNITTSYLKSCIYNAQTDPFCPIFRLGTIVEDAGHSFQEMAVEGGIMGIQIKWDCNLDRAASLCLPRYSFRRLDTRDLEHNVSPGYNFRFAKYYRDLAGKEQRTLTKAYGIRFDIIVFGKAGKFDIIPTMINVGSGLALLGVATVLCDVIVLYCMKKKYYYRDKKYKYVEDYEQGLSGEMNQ
In words: Antagonist activity against recombinant rat P2X purinoceptor 4 (P2X4) at 3 uM, expressed in Xenopus oocytes. Format: functional, cell-based, Oocyte.

A further experiment addresses T4, P2X purinoceptor 2 (Rattus norvegicus, UniProt P49653).
T4 sequence (P49653 whole entry): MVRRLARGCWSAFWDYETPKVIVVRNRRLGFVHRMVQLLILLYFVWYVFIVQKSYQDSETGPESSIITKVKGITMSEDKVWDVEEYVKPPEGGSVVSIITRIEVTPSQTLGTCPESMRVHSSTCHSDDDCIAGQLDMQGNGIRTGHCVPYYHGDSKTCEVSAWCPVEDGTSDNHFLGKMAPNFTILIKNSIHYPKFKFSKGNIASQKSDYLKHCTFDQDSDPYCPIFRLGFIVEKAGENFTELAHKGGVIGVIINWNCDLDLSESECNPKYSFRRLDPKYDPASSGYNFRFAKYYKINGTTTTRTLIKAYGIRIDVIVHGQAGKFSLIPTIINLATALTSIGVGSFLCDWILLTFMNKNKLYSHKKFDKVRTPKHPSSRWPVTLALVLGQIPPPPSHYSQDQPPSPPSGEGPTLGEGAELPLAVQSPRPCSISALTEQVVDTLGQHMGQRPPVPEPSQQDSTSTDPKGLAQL
The experiment can be described thus: The compound was evaluated for antagonist activity against recombinant rat receptor P2X purinoceptor 2 (P2X2) at 30 uM, expressed in Xenopus oocytes. Format: functional, cell-based, Oocyte.

In the next experiment the target is P2Y purinoceptor 6 (Homo sapiens, UniProt Q15077). In words: The compound was evaluated for agonist activity against phospholipase C coupled recombinant human P2Y purinoceptor 6 (P2Y6). It counts as functional. Particulars: concentration not given here.
P2Y purinoceptor 6, sequence (Q15077 whole entry): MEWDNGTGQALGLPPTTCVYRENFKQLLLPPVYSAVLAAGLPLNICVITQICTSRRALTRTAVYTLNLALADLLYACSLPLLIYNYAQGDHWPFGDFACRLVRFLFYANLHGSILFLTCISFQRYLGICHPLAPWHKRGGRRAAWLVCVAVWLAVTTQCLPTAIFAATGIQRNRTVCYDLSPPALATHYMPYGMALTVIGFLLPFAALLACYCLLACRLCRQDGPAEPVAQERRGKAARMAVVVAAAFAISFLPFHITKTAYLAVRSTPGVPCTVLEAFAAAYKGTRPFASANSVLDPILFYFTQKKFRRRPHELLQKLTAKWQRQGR
Experiment [3] addresses P2Y purinoceptor 1 (Rattus norvegicus) (UniProt P49651). In words: Evaluated for agonist activity against phospholipase C coupled P2Y purinoceptor 1 (P2Y1) of rat erythrocytes.
In a further experiment the target is T5, P2X purinoceptor 5 (Rattus norvegicus, UniProt P51578).
T5 sequence (P51578 whole entry): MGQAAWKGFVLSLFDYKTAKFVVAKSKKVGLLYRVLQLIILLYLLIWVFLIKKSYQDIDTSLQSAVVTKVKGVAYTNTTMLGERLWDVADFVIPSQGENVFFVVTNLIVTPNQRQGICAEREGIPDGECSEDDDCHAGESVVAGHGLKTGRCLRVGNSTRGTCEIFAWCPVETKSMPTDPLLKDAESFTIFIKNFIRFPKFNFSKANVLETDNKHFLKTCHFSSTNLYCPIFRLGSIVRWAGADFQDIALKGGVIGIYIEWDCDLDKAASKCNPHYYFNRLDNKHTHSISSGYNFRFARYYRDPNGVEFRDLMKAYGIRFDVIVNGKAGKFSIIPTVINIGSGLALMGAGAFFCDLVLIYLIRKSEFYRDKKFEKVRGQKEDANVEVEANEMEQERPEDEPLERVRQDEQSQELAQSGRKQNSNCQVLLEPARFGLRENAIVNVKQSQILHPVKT
In words: Antagonist activity against recombinant rat P2X purinoceptor 5 (P2X5). Format: functional.

The target of the next experiment is P2Y purinoceptor 4 (Homo sapiens, UniProt P51582). In words: The compound was evaluated for antagonist activity against phospholipase C coupled recombinant human P2Y purinoceptor 4 (P2Y4). It counts as functional.
P2Y purinoceptor 4, sequence (P51582 whole entry): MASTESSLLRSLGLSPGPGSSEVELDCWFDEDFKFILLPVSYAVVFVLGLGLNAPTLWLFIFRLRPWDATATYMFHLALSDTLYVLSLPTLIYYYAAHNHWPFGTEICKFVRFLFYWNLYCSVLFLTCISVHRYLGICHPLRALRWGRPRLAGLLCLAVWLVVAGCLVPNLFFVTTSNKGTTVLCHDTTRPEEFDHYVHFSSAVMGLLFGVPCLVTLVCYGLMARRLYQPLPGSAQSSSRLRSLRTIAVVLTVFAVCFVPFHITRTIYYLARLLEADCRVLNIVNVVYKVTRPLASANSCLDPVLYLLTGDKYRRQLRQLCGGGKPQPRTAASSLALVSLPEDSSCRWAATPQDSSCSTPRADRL
Experiment [4] deals with T1, P2Y purinoceptor 1. In words: Dissociation constant at P2Y purinoceptor 1 (P2Y1) from guinea pig taenia coli. Set-up: species or system Cavia porcellus. Particulars: target entry is the homologue from another species.
Experiment [5] concerns the target T2, P2X purinoceptor 1. In words: The compound was evaluated for antagonist activity against P2X purinoceptor 1 (P2X1) from rat vas deferens. It counts as functional.

By EC50 is commonly meant the concentration needed to bring the measured effect to its halfway point. As usually defined, the inhibition is the drop in the measured response relative to a control, in per cent. In general, Kd refers to the constant that tells how readily two partners part at equilibrium. Low values mean higher affinity, high ones lower affinity. As a reminder, the IC50 is the concentration that gives 50% inhibition. Low readings indicate greater potency, high ones weaker potency.

T1 sequence (P47900 whole entry): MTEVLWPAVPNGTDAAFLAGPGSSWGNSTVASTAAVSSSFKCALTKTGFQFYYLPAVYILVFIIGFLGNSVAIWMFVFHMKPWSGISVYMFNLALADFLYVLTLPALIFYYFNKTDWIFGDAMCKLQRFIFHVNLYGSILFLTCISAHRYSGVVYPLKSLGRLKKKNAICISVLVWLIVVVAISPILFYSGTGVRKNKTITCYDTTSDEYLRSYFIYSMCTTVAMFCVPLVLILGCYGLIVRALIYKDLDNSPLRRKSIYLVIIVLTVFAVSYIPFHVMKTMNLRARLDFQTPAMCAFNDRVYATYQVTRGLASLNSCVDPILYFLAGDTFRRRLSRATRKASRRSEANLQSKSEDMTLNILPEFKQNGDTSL
P2X purinoceptor 6, sequence (P51579 whole entry): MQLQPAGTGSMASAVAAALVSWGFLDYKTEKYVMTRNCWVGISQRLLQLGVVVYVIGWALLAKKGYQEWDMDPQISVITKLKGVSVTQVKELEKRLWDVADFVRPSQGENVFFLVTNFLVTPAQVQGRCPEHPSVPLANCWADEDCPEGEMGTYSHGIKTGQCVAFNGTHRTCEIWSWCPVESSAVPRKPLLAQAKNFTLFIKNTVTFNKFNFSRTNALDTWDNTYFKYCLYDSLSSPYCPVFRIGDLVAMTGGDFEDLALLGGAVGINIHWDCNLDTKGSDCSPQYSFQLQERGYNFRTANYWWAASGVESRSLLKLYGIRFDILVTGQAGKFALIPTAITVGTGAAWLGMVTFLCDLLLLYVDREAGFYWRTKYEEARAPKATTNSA
P2Y purinoceptor 2, sequence (P41231 whole entry): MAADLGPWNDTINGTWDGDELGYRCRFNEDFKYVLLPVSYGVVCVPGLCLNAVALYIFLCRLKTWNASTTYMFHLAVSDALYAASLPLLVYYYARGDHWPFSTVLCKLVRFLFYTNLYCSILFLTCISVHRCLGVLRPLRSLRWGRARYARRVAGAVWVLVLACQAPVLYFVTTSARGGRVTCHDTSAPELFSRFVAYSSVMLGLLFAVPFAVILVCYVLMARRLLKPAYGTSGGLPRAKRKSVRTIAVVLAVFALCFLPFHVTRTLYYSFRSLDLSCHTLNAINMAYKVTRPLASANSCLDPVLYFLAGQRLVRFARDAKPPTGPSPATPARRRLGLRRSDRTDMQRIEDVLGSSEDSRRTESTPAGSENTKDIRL
P2Y purinoceptor 1 (Rattus norvegicus), sequence (P49651 whole entry, looked up): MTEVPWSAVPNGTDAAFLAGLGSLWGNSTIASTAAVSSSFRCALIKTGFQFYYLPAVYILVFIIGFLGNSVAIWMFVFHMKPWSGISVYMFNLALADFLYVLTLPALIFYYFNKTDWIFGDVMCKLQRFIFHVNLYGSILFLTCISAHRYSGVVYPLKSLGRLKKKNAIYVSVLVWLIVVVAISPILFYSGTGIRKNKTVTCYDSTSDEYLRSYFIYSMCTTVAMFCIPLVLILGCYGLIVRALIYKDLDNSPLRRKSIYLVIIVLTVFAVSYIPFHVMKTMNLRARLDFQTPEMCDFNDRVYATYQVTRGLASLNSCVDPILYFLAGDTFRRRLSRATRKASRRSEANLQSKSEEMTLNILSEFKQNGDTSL
P2X purinoceptor 7, sequence (Q64663 whole entry): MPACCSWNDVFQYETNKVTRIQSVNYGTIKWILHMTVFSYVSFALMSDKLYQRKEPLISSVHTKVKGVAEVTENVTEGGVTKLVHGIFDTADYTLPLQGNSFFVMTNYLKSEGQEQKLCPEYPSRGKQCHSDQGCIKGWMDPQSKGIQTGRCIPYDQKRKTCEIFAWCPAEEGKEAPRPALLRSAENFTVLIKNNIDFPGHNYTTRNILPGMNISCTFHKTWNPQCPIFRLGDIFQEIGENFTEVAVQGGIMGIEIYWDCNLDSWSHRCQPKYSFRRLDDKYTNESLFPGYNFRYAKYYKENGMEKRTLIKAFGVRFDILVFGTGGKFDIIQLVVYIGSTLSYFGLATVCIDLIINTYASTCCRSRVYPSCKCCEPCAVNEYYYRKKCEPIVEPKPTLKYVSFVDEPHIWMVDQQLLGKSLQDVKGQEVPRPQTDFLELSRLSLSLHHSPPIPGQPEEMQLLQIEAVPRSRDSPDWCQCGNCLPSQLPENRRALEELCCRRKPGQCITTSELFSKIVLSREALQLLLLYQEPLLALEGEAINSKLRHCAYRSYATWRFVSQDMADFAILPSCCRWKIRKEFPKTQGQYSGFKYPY
P2Y purinoceptor 12, sequence (Q9EPX4 whole entry): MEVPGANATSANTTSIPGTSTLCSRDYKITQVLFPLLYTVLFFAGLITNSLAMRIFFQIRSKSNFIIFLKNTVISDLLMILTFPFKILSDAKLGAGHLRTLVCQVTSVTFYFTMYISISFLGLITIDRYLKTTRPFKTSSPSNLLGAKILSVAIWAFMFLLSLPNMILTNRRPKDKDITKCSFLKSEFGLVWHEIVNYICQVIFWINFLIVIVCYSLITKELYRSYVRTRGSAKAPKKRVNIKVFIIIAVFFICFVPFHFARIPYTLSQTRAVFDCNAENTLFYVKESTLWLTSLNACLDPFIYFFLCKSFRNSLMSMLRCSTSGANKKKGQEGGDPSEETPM

Take `Cc1nc(/N=N/c2ccc(S(=O)(=O)O)cc2S(=O)(=O)O)c(COP(=O)(O)O)c(C=O)c1O`: the concentration for a half-maximal effect (EC50) is 62 µM on P2X purinoceptor 7; over 100 µM at P2X purinoceptor 6; over 10 µM on P2Y purinoceptor 2; 1 µM at P2Y purinoceptor 1 [1]; 0.099 µM at P2X purinoceptor 1 [2]; over 100 µM at P2Y purinoceptor 12. Further, the half-maximal effective concentration (EC50) is over 10 µM on P2X purinoceptor 4; 12 µM on P2X purinoceptor 2; 18.2 µM in experiment [3]; 2.6 µM at P2X purinoceptor 5; over 10 µM at P2Y purinoceptor 4. In addition, the inhibition on P2Y purinoceptor 6 came to 69%.

In the case of `C=CS(=O)(=O)c1cccc(Nc2cc(S(=O)(=O)O)c(N)c3c2C(=O)c2ccccc2C3=O)c1` [UNIBLUE A], at P2Y purinoceptor 1 [4], the Kd was over 100 µM. Besides, it took 7.5 µM to reach half-maximal inhibition against P2X purinoceptor 1 [5] (IC50).
